Experiments:
TNF-α = assay: TLR-induced cytokine release in human PBMC: TNF-alpha (ELISA); assay type: cell-based; conditions: human PBMC stimulated using a TLR ligand, incubated 18 hours with test substance, supernatant ELISA
Protocol: (§1) TLR-Induced Cytokine Release in Human “Peripheral Blood Mononuclear Cells” (PBMC)
(§2) PBMCs isolated from human whole blood are stimulated using a TLR ligand. The cytokine determination is carried out by means of ELISA kits; a proliferation/cell metabolism determination is carried out using Alamar Blue.
(§3) For the cell preparation, about 200 ml of blood are treated with an anticoagulant (e.g. citrate Monovettes). Per Leucosep tube, 15 ml of Histopaque (room temperature, RT) are poured in and pressed downwards through the frit employed by brief initial centrifugation (one minute at 1000×g, RT). 20 ml of blood are added to the tubes prepared in this way and centrifuged at 800×g for 15 minutes (RT). After centrifugation, the following layered arrangement results from the top to the bottom: plasma—PBMC—Histopaque—filter disc—Histopaque—erythrocytes and granulocytes. The supernatant plasma is aspirated. The PBMC are transferred together with the underlying Histopaque to a new 50 ml tube, the contents of two Leucosep tubes always being added to one 50 ml tube. The 50 ml tubes are then filled to 50 ml with PBS. This cell suspension is centrifuged at 300×g (RT) for 10 minutes. The liquid supernatant is tipped off and the cell pellet is resuspended with a little PBS and subsequently filled to 50 ml with PBS. This washing step is repeated twice. The resulting pellet is taken up in a defined volume of medium (with additives). For the testing of the substances, PBMC are incubated for 18 hours with titrated concentrations of the test substances, e.g. in the presence or absence of TLR ligands. On the next day, the supernatants are investigated for the content of IL-12, TNF-alpha or other chemokines by means of specific ELISA. The metabolic activity of the treated cells is determined with the aid of Alamar Blue.

IL-12 = assay: TLR-induced cytokine release in human PBMC: IL-12 (ELISA); assay type: cell-based; conditions: human PBMC stimulated using a TLR ligand, incubated 18 hours with test substance, supernatant ELISA
Protocol: as §1, §2, §3

Row | IC50 (TNF-α) | IC50 (IL-12) | SMILES
1 | 2.1 µM | 4.1 µM | CC(C)Nc1ncnc2cc(OCc3cccc(S(C)(=N)=O)c3)c(Br)cc12 (racemic) [Example 1.2, (RS)-S-[3-({[6-Bromo-4-(isopropylamino)quinazolin-7-yl]oxy}methyl)phenyl]-S-methylsulphoximide]
2 | 4 µM | 15 µM | CC(C)Nc1ncnc2cc(OCc3ccc(S(C)(=N)=O)cc3)c(Br)cc12 (racemic) [Example 2.8, (RS)-S-[4-({[6-Bromo-4-(isopropylamino)quinazolin-7-yl]oxy}methyl)phenyl]-S-methylsulphoximide]
3 | 0.2 µM | 0.4 µM | CCS(=N)(=O)c1cccc(COc2cc3ncnc(NC(C)C)c3cc2OC)c1 (racemic) [Example 2.10, (RS)-S-Ethyl-S-[3-({[4-(isopropylamino)-6-methoxyquinazolin-7-yl]oxy}-methyl)phenyl]sulphoximide]
4 | 10 µM | 15 µM | COc1cc2c(NC(C)C)ncnc2cc1OCCCS(C)(=N)=O (racemic) [Example 3.4, (RS)-S-(4-{[4-(Isopropylamino)-6-methoxyquinazolin-7-yl]oxy}propyl)-S-methyl-sulphoximide]
5 | 1 µM | 4 µM | CC(C)Nc1ncnc2cc(OCc3cncc(S(C)(=N)=O)c3)c(Br)cc12 (racemic) [Example 3.7, (RS)-S-[5-({[6-Bromo-4-(isopropylamino)quinazolin-7-yl]oxy}methyl)pyridin-3-yl]-S-methylsulphoximide]

— patent US7863283B2, “Sulphoximine-substituted quinazoline derivatives as immuno-modulators, their preparation and use as medicaments” (Bayer Schering Pharma AG, priority 2008, dated 2011)
